From patent publication US4440757A, “Pharmaceutical composition comprising derivative of aminobenzoic acid for regulating prostaglandin” (priority 1978, dated 1984)
Like-named read-outs stand apart in the source and are kept apart here.

What was measured:
[1] = system: Salmonella typhimurium TA 100; experiment: Mutagenicity, reversion assay, TA 100; assay type: cell-based
Method: (§1) (ii) The strains TA 98 and TA 100 (both are histidine requiring) of Salmonella typhimurium were used in the reversion assay.
(§2) Into 2 ml of a soft agar culture medium (the medium itself contains 6 g of sodium chloride and 6 g of agar in 1000 ml of distilled water) to which one tenth by volume of an aqueous solution of 0.5 mM of biotin and 0.5 mM of histidine had been added, 0.1 ml of the bacterial suspension and 0.1 ml of an aqueous solution of the present substance were admixed and the mixture was layered on the minimum agar culture medium. After 2 days of incubation at 37° C., the number of revertant colonies was counted. Furylfuramide (AF-2) was used as the positive control.

[2] = system: Salmonella typhimurium TA 98; experiment: Mutagenicity, reversion assay, TA 98; assay type: cell-based
Method: as §1, §2

[3] = system: male Sprague-Dowley rats; experiment: Leakage of dye-staff after skin stimulation with histamine and PGE1; assay type: in vivo; conditions: challenge agents only, no present substance
Method: To the three groups of male Sprague-Dowley rats of the total six groups, the respective present substances (Specimens Nos. 4, 7 and 8) were forcibly administered by oral route at the rate of 1000 mg/kg, the other three groups being administered nothing at this time. After 60 min of the administration, a mixture of PGE1 (2.5×10^-11 mol/animal) and histamine (2×10^-8 mol/animal) was intracutaneously injected under light […] into the shaved skin of an abdominal part of four groups of the rats including three groups administered with the present substance.

[4] = system: Bacillus subtilis M 45; experiment: Mutagenicity, rec-assay, strain M 45; assay type: cell-based; conditions: 10 μg/disk, negative control
Method: (§3) As the first stage, the present substances were tested by rec-assay (i), and as the second stage, they were tested by reversion assay (ii).
(§4) (i) A strain of Bacillus subtilis M 45, a defectant of recombination repair, and a wild strain of Bacillus subtilis H 17 keeping recombination repair activity were inoculated to make their own streaks not crossed at the start on a B-2 agar culture plate (made by dissolving 10 g of meat extract, 10 g of polypeptone, 5 g of sodium chloride and 15 g of agar in 1000 ml of distilled water at pH 7.0). Then, a paper disc of 8 mm in diameter, which absorbed 0.04 ml of an aqueous solution of the present substance in sterilized water was put on the surface of the agar plate so as to cover the starting point of the above-mentioned streaks of bacterial culture. The inoculated B-2 agar plate was kept at 37° C. for a night and the length of growth-inhibited region was measured.

[5] = system: Bacillus subtilis H 17; experiment: Mutagenicity, rec-assay, strain H 17; assay type: cell-based; conditions: 10 μg/disk, negative control
Method: as §3, §4

[6] = system: male Sprague-Dowley rats; experiment: Foot-oedema induced by carrageenin and PGE1; assay type: in vivo; conditions: challenge agents only, no present substance; 60 min
Method: The three groups of male Sprague-Dowley rats of total six groups, the respective present substances, Specimens Nos. 4, 7 and 8 were administered forcibly by oral route at a rate of 1000 mg/kg, the other three groups of the same kind of rats being administered nothing at this time.
After 60 min of the administration, 0.1 ml of an aqueous solution of carrageenin (1 mg) and PGE1 (0.1 μg) was injected onto the hind paw of the four groups of the rats including the three groups administered with the present substance. To one group of remaining two groups not administered with the present substance, 0.1 ml of an aqueous solution containing only carrageenin at 1% was injected, and to the other one group not administered with the present substance, an aqueous solution containing only PGE1 was injected.
The volume of the thus swollen foot of the groups of the thus treated rats was measured by the water-displacement method, and the results are shown in Table 17 by the increment of the volume of foot as compared to the volume of foot before the treatment as percentage.

[7] = Acute oral toxicity (Litchfield-Wilcoxon); conditions: in vivo, mouse, 7 days
Method: The acute oral toxicity of the present substances were examined by using groups of ICR-JCL mouse and orally administering each of the representatives of present substances forcibly as an aqueous solution in distilled water or as an aqueous suspension also in distilled water at predetermined dosages, respectively. After observing the toxicological symptoms, if any, for 6 days, and recording the mortality until 7th day of the administration, LD50 (acute oral) was calculated by the method of Litchfield-Wilcoxon, and autopsy was carried out on dead mice and live mice to obtain informations.

[8] = system: dog's stomach; assay type: in vivo, Beagle dog
Method: Five grams of the present substance (each of Specimens Nos. 1, 2, 3, 4, 5, 6, 7, 8, 9, 10 and 11) and of aspirin were respectively administered to each Beagle of body weight of 9 to 12 kg as an aqueous suspension in distilled water of adjusted pH of 3, and after 90 min of the administration, the state of hemorrhage in the dog's stomach was examined.

[9] = system: Ehrlich cancer; experiment: Cancer proliferation and PGE in the cancer cells (Ehrlich); assay type: in vivo, C57BL/6 mouse; conditions: 100 mg/kg i.p. every other day, 14th day; for Weight of cancer: control 1.30; for Content of PGE in the cancer: control 1.77
Method: Following the same method as in Example 12, the anti-cancer action against transplanted Ehrlich cancer in C57BL/6 mouse, and the amount of PGE in the cancer cells in proliferation in the living body of the mouse were examined in the cases where each one compound of the present invention, Specimens Nos. 1, 2, 3, 4, 5, 6, 8, 9, 10 and 11 was intraperitoneally administered every other day from the next day of the transplantation in total 6 times at a dosage of 100 mg/kg.
The results of determination of the weight of cancer extirpated from the sacrificed mouse on 14th day of the transplantation of the cancer cells, 1×10^6 in number per animal, and content of PGE of the extirpated cancer are shown in the following Table 13: […]

| Compound | LD50 at 168 h [7] [mg/kg] | Number of revertant colonies TA 100 ([1]; 5,000 μg/plate, control 149) [number per plate] | Number of revertant colonies TA 98 ([2]; 5,000 μg/plate, control 13) [number per plate] | hemorrhage in the stomach ([8]; dog, in vivo) | Weight of cancer [9] [g] | Content of PGE in the cancer [9] [ng/g] | other results |
| --- | --- | --- | --- | --- | --- | --- | --- |
| NC(=O)C(=Cc1ccc([N+](=O)[O-])o1)c1ccco1 [Furylfuramide, reference compound] | – | – | – | – | – | – | Number of revertant colonies TA 100 ([1]; 0.1 μg/plate, positive control): 911 number per plate; Number of revertant colonies TA 98 ([2]; 0.1 μg/plate, positive control): 167 number per plate |
| NCCc1c[nH]cn1 [Histamine, histamine, reference compound] | – | – | – | – | – | – | Absorbance at 620 nm (dye leakage) [3]: 0.192 |
| NC[C@H]1O[C@H](O[C@H]2[C@H](O)[C@@H](O[C@H]3O[C@H](CO)[C@@H](O)[C@H](N)[C@H]3O)[C@H](N)C[C@@H]2N)[C@H](O)[C@@H](O)[C@@H]1O [Kanamycin] | – | – | – | – | – | – | Length of inhibition growth zone M 45 [4]: 5 mm; difference (M 45 minus H 17) [4]: 1 mm; Length of inhibition growth zone H 17 [5]: 4 mm |
| CCCCC[C@H](O)/C=C/[C@H]1[C@H](O)CC(=O)[C@@H]1CCCCCCC(=O)O [PGE1, reference compound] | – | – | – | – | – | – | Percentage increment of volume of foot [6]: 9.3%; Absorbance at 620 nm (dye leakage) [3]: 0.066 |
| O=C(O)c1ccccc1NC1O[C@H](CO)[C@H](O)[C@H](O)[C@H]1O (stereo partly drawn) [Specimen No. 1, Sodium o-aminobenzoate-N--D-galactoside] | 6100 | 151 | 6 | no hemorrhage in the stomach was found | 0.63 | 4.10 | – |
| C[C@@H]1OC(Nc2ccccc2C(=O)O)[C@H](O)[C@H](O)[C@H]1O (stereo partly drawn) [Specimen No. 2, Sodium o-aminobenzoate-N--L-rhamnoside] | 12500 | 61 | 9 | no hemorrhage in the stomach was found | 0.81 | 3.88 | – |
| O=C(O)c1cccc(NC2O[C@H](CO)[C@@H](O)[C@H](O)[C@@H]2O)c1 (stereo partly drawn) [Specimen No. 3, Sodium m-aminobenzoate-N--D-mannoside] | > 10000 | 90 | 6 | no hemorrhage in the stomach was found | 0.74 | 4.23 | – |
| O=C(O)c1ccc(NC2O[C@H](CO)[C@@H](O)[C@H](O)[C@H]2O)cc1 (stereo partly drawn) [Specimen No. 5, Sodium p-aminobenzoate-N--D-glucoside] | > 15000 | 104 | 11 | no hemorrhage in the stomach was found | 0.70 | 3.20 | – |
| O=C(O)c1ccc(NC2O[C@H](CO)[C@H](O)[C@H](O)[C@H]2O)cc1 (stereo partly drawn) [Specimen No. 6, Sodium p-aminobenzoate-N--D-galactoside] | 14600 | 51 | 7 | no hemorrhage in the stomach was found | 0.65 | 3.66 | – |
| O=C(O)c1ccc(NC2(CO)OC[C@@H](O)[C@@H](O)[C@@H]2O)cc1 (stereo partly drawn) [Specimen No. 9, Sodium p-aminobenzoate-N--D-fructoside] | > 10000 | 95 | 5 | no hemorrhage in the stomach was found | 0.80 | 4.32 | – |
| O=C(O)c1ccc(NC2OC[C@H](O)[C@H](O)[C@H]2O)cc1 (stereo partly drawn) [Specimen No. 10, Sodium p-aminobenzoate-N--L-arabinoside] | 10800 | 51 | 3 | no hemorrhage in the stomach was found | 0.70 | 4.14 | – |
| COC(=O)c1ccccc1NC1O[C@H](CO)[C@@H](O)[C@H](O)[C@@H]1O (stereo partly drawn) [Specimen No. 11, Methyl o-aminobenzoate-N--D-mannoside] | > 7500 | 95 | 8 | no hemorrhage in the stomach was found | 0.69 | 4.20 | – |
| CC(=O)Oc1ccccc1C(=O)O [aspirin, reference compound] | – | – | – | – | – | – | hemorrhage in the stomach ([8]; 5 g, 90 min after administration): hemorrhage in the stomach was observed |
